Experimental data: patent US10780101B2, “Amide derivatives of squalamine for the treatment of infections” (VIRBAC, priority 2016, dated 2020)
≈ marks a conversion by molar mass, not a printed value. Like-named read-outs stand apart in the source and are kept apart here.

Assays:
[1] = test system: S. aureus Human ATCC 25923; assay: MIC determination, S. aureus human ATCC 25923; assay type: cell-based; conditions: Staphylococcus aureus, ATCC25923; Gram-positive; Mueller-Hinton medium, 24 h at 37° C.
Procedure, shortened: (§1)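 Broth microdilution in Mueller-Hinton medium; compounds from 5 mg/mL stock in DMSO/methanol (50/50), twofold serial dilutions, inoculum adjusted to OD 0.01. Plates incubated 24 h at 37 °C, humid atmosphere; OD read at 620 nm to derive MIC, duplicates.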

S. aureus Animal (340) = assay: MIC determination, S. aureus animal (340); assay type: cell-based; conditions: Staphylococcus aureus; Gram-positive; Mueller-Hinton medium, 24 h at 37° C.
Procedure, shortened: as §1

[2] = test system: S. intermedius Animal (1051997); assay: MIC determination, S. intermedius animal (1051997); assay type: cell-based; conditions: Staphylococcus intermedius; Gram-positive; Mueller-Hinton medium, 24 h at 37° C.
Procedure, shortened: as §1

[3] = test system: E. faecalis Human ATCC 29212; assay: MIC determination, E. faecalis human ATCC 29212; assay type: cell-based; conditions: Enterococcus faecalis, ATCC29212; Gram-positive; Mueller-Hinton medium, 24 h at 37° C.
Procedure, shortened: as §1

E. coli Human ATCC 28922 = assay: MIC determination, E. coli human ATCC 28922; assay type: cell-based; conditions: Escherichia coli, ATCC28922; Gram-negative; Mueller-Hinton medium, 24 h at 37° C.
Procedure, shortened: as §1

E. coli Animal (1956) = assay: MIC determination, E. coli animal (1956); assay type: cell-based; conditions: Escherichia coli; Gram-negative; Mueller-Hinton medium, 24 h at 37° C.
Procedure, shortened: as §1

[4] = test system: P. aeruginosa Human ATCC 27853; assay: MIC determination, P. aeruginosa human ATCC 27853; assay type: cell-based; conditions: Pseudomonas aeruginosa, ATCC27853; Gram-negative; Mueller-Hinton medium, 24 h at 37° C.
Procedure, shortened: as §1

[5] = test system: P. aeruginosa Animal (1051575); assay: MIC determination, P. aeruginosa animal (1051575); assay type: cell-based; conditions: Pseudomonas aeruginosa; Gram-negative; Mueller-Hinton medium, 24 h at 37° C.
Procedure, shortened: as §1

CHO-K1 cells = assay: WST1 cytotoxicity test on CHO-K1 cells; assay type: cell-based, Chinese hamster; conditions: Cricetulus griseus
Procedure, shortened: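 CHO-K1 cells pre-grown 24 h, then exposed to increasing compound concentrations in duplicate for 24 h at 37° C, 5% CO2. Viability read after 20 min with 10% WST-1 in PBS at 450 nm; IC50 from nonlinear regression as concentration cutting viability 50%.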

P. aeruginosa (1051575) [6] = assay: Potentiation of doxycycline activity (combination MIC); assay type: cell-based, Pseudomonas aeruginosa; conditions: in presence of doxycycline 2 μg/mL; 24 hours at 37° C.
C. albicans = assay: Antifungal activity, cascade microdilution; assay type: cell-based; conditions: Candida albicans, 24 h, read-out: IC50 (μg/mL) C. albicans
P. aeruginosa (1051575) [7] = assay: Potentiation of erythromycin activity (combination MIC); assay type: cell-based, Pseudomonas aeruginosa; conditions: erythromycin 2 μg/mL; concentration of compound required to restore antibiotic activity
Method: (§2) This method requires the use of a 96-well plate: 100 μL of a liquid culture medium are placed in each well and then seeded with the microbial suspension prepared previously. The required volume to be seeded is calculated for an OD of 0.01, which corresponds to about 5×10^6 bacteria in each well. In this plate, the first line corresponds to a negative control (200 μL of sterile culture medium in each well), the second line corresponds to a positive control (100 μL of sterile culture medium+100 μL of the bacterial suspension), and the third line contains 192 μL of culture medium; 8 μL of compound of formula (I) to be tested are placed in each well. Thereafter, a cascade dilution is performed from this line. L of a doxycycline solution (1 mg dissolved in 20 mL) are then added to each well of lines 3 to 8 to obtain a final antibiotic concentration of 2 μg/mL. 92 μL of bacterial suspension are then added to lines 3 to 8. The results are read (the determination of the MIC (2 μg/mL of doxycycline) in the presence of X g/mL of compound of formula (I)) after 24 hours of incubation at 37° C. under a humid atmosphere. After 24 hours of incubation at 37° C., 40 μL of nitro tetrazolium iodide are added to each well to reveal the presence of live bacteria by staining the medium pink.
The procedure is identical to that indicated in Example 5 above. 8 μL of an antibiotic solution under consideration (1 mg dissolved in 20 mL) are added to obtain a final antibiotic concentration of 2 μg/mL instead of 8 μL of a doxycycline solution.
(§3) The results are given in table V. They indicate the concentration of compound of formula (I) required to be able to restore the activity of the antibiotic under consideration.

P. aeruginosa (1051575) [8] = assay: Potentiation of chloramphenicol activity (combination MIC); assay type: cell-based, Pseudomonas aeruginosa; conditions: chloramphenicol 2 μg/mL; concentration of compound required to restore antibiotic activity
Method: as §2, with “L of a doxycycline solution (1 mg dissolved in 20 mL) are then added to each well of lines 3 to 8 to obtain a final antibiotic concentration of 2 μg/mL.” left out
The procedure is identical to that indicated in Example 5 above. […]
as §3

[9] = CHO-K1, 24 h, read-out: IC50 (μg/mL) CHO
[10] = CHO-K1, read-out: IC50 (μg/mL) CHO

| SMILES | MIC [1] [µg/mL] | MIC (S. aureus Animal (340)) [µg/mL] | MIC [2] [µg/mL] | MIC [3] [µg/mL] | MIC (E. coli Human ATCC 28922) [µg/mL] | MIC (E. coli Animal (1956)) [µg/mL] | MIC [4] [µg/mL] | MIC [5] [µg/mL] | IC50 (CHO-K1 cells; [9]) [µg/mL] | IC50 (CHO-K1 cells; [10]) [µg/mL] | MIC - P. aeruginosa (1051575): content of compound of formula (I) to restore the doxycycline activity (at 2 μg/mL) (P. aeruginosa (1051575) [6]) [µg/mL] | IC50 (C. albicans) [µg/mL] | MIC P. aeruginosa (1051575) compound + erythromycin (P. aeruginosa (1051575) [7]) [µg/mL] | MIC P. aeruginosa (1051575) compound + chloramphenicol (P. aeruginosa (1051575) [8]) [µg/mL] |
| --- | --- | --- | --- | --- | --- | --- | --- | --- | --- | --- | --- | --- | --- | --- |
| CNC(=O)CC[C@@H](C)[C@H]1CCC2C3C(CC[C@@]21C)[C@@]1(C)CC[C@H](NCCCNCCCN)CC1C[C@H]3O (stereo partly drawn) [(11), 3β-norspermidino-N-methylchenodeoxycholamide] | 6 (≈ 11.6 µM) | 3 (≈ 5.78 µM) | 1 (≈ 1.93 µM) | 13 (≈ 25.1 µM) | 13 (≈ 25.1 µM) | 13 (≈ 25.1 µM) | 12 (≈ 23.1 µM) | 6 (≈ 11.6 µM) | 20 (≈ 38.5 µM) | 20 (≈ 38.5 µM) | 2 | 3 (≈ 5.78 µM) |  |  |
| CC(C)NC(=O)CC[C@@H](C)[C@H]1CCC2C3C(C[C@H](O)[C@@]21C)[C@@]1(C)CC[C@H](NCCCNCCCNCCCN)CC1C[C@H]3O (stereo partly drawn) [(4), 3β-norspermino-N-isopropylcholamide] | 8 (≈ 12.9 µM) | 16 (≈ 25.8 µM) | 4 (≈ 6.45 µM) | 32 (≈ 51.6 µM) | 16 (≈ 25.8 µM) | 32 (≈ 51.6 µM) | 64 (≈ 103 µM) | 32 (≈ 51.6 µM) | 65 (≈ 105 µM) | 170 (≈ 274 µM) | 1 | 8 (≈ 12.9 µM) |  |  |
| C[C@H](CCC(=O)NC1CCCCC1)[C@H]1CCC2C3C(CC[C@@]21C)[C@@]1(C)CC[C@H](NCCCN(CCCN)CCCN)CC1C[C@H]3O (stereo partly drawn) [(47), 3β-(tris(3-aminopropyl)amine)-N-cyclohexylchenodeoxycholamide] | 4 (≈ 6.21 µM) | 8 (≈ 12.4 µM) | 8 (≈ 12.4 µM) | 8 (≈ 12.4 µM) | 130 (≈ 202 µM) | 32 (≈ 49.7 µM) | 130 (≈ 202 µM) | 32 (≈ 49.7 µM) |  |  | 2 | 2 (≈ 3.11 µM) |  |  |
| CC(C)N(C(=O)CC[C@@H](C)[C@H]1CCC2C3C(CC[C@@]21C)[C@@]1(C)CC[C@H](NCCCN(CCCN)CCCN)CC1C[C@H]3O)C(C)C (stereo partly drawn) [(56), 3β-(tris(3-aminopropyl)amine)-N,N-diisopropylchenodeoxycholamide] | 4 (≈ 6.19 µM) | 4 (≈ 6.19 µM) | 4 (≈ 6.19 µM) | 2 (≈ 3.1 µM) | 65 (≈ 101 µM) | 16 (≈ 24.8 µM) | 130 (≈ 201 µM) | 65 (≈ 101 µM) |  |  | 2 | 4 (≈ 6.19 µM) |  |  |
| CC(C)N(C(=O)CC[C@@H](C)[C@H]1CCC2C3C(CC[C@@]21C)[C@@]1(C)CC[C@H](NCCCNCCCNCCCN)CC1C[C@H]3O)C(C)C (stereo partly drawn) [(40), 3β-norspermino-N,N-diisopropylchenodeoxycholamide] | 4 (≈ 6.19 µM) | 2 (≈ 3.1 µM) | 2 (≈ 3.1 µM) | 2 (≈ 3.1 µM) | 32 (≈ 49.5 µM) | 8 (≈ 12.4 µM) | 8 (≈ 12.4 µM) | 8 (≈ 12.4 µM) |  |  | 2 | 1 (≈ 1.55 µM) |  |  |
| CC(C)NC(=O)CC[C@@H](C)[C@H]1CCC2C3CCC4C[C@@H](NCCCN(CCCN)CCCN)CC[C@]4(C)C3CC[C@@]21C (stereo partly drawn) [(49), 3β-(tris(3-aminopropyl)amine)-N-isopropyllithocholamide] | 4 (≈ 6.8 µM) | 4 (≈ 6.8 µM) | 2 (≈ 3.4 µM) | 15 (≈ 25.5 µM) | 120 (≈ 204 µM) | 30 (≈ 51 µM) | 120 (≈ 204 µM) | 60 (≈ 102 µM) | 6 (≈ 10.2 µM) |  | 4 |  | 30 | 4 |
| CC(C)NC(=O)CC[C@@H](C)[C@H]1CCC2C3CCC4C[C@@H](NCCCN(CCCN)CCCN)CC[C@]4(C)C3C[C@H](O)[C@@]21C (stereo partly drawn) [(42), 3β-(tris(3-aminopropyl)amine)-N-isopropyldeoxycholamide] | 4 (≈ 6.62 µM) | 4 (≈ 6.62 µM) | 1 (≈ 1.66 µM) | 30 (≈ 49.7 µM) | > 120 | 30 (≈ 49.7 µM) | 30 (≈ 49.7 µM) | 60 (≈ 99.3 µM) | 40 (≈ 66.2 µM) |  | 1 |  | 8 | 2 |
